Measured values taken from ChEMBL document CHEMBL1909046, “DrugMatrix in vitro pharmacology data”.

Experiments:
[1] = molecular target: Sigma non-opioid intracellular receptor 1 (Homo sapiens, UniProt Q99720); assay: DRUGMATRIX: Sigma1 radioligand binding (ligand: [3H] Haloperidol); format: cell membranes, Jurkat, Membrane; conditions: Not Active = under 50% inhibition at 10 µM; for Ki: read-out: Ki
[2] = DRUGMATRIX: Sigma2 radioligand binding (ligand: [3H] Ifenprodil); format: cell membranes, Rattus norvegicus, Wistar, Brain, Membrane; conditions: Not Active = under 50% inhibition at 10 µM
[3] = molecular target: Substance-P receptor (Homo sapiens, UniProt P25103); format: cell membranes, CHO, Membrane; conditions: cho; further: in other assays of this panel Not Active means under 50% inhibition at 10 µM
[4] = DRUGMATRIX: GABAA, Flunitrazepam, Central radioligand binding (ligand: [3H] Flunitrazepam); format: cell membranes, Rattus norvegicus, Wistar, Brain, Membrane; conditions: Not Active = under 50% inhibition at 10 µM
[5] = DRUGMATRIX: Glutamate, Kainate radioligand binding (ligand: [3H] Kainic acid); format: cell membranes, Rattus norvegicus, Wistar, Brain, Membrane; conditions: Not Active = under 50% inhibition at 10 µM
[6] = molecular target: T1, Leukotriene C4 synthase (Cavia porcellus, UniProt A6XA80); assay: biochemical; format: tissue-based, Lung;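 further: enzyme inhibition assay of leukotriene C4 synthase, using LTA4 as the substrate; in other assays of this panel Not Active means under 50% inhibition at 10 µM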
T1 sequence (A6XA80 whole entry): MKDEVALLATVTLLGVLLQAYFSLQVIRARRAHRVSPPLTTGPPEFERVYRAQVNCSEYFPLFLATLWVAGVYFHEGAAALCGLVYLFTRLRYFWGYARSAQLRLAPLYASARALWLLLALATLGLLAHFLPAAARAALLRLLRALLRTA

[7] = molecular target: T2, Polyunsaturated fatty acid lipoxygenase ALOX15 (Oryctolagus cuniculus, UniProt P12530); assay: biochemical; format: tissue-based, Reticulocytes; conditions: reticulocytes;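 further: inhibition of 15-lipoxygenase enzyme activity measured with linoleic acid as the substrate; in other assays of this panel Not Active means under 50% inhibition at 10 µM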
T2 sequence (P12530 whole entry): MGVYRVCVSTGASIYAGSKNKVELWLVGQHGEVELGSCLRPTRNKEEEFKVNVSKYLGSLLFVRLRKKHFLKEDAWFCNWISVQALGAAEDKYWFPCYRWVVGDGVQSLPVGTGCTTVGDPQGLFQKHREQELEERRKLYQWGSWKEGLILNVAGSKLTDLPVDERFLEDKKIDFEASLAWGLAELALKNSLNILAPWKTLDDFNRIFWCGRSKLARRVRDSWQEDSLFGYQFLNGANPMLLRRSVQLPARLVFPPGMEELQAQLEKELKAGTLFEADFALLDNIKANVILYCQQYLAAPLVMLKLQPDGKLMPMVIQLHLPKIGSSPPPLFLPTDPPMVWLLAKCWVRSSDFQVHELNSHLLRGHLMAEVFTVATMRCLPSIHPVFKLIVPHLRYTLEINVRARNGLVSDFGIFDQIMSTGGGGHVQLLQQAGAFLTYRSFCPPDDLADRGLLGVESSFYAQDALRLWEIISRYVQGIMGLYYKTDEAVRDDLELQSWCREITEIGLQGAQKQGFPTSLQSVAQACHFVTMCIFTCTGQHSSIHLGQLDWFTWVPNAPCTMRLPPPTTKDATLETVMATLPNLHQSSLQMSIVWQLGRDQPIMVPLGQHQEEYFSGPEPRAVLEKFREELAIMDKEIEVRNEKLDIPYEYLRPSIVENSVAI

[8] = DRUGMATRIX: Phorbol Ester radioligand binding (ligand: [3H] PDBu); format: cell membranes, Mus musculus, ICR, Brain, Membrane; conditions: Not Active = under 50% inhibition at 10 µM
[9] = molecular target: cGMP-specific 3',5'-cyclic phosphodiesterase (Homo sapiens, UniProt O76074); assay: DRUGMATRIX: Phosphodiesterase PDE5 enzyme inhibition (substrate: [3H]cGMP + cGMP); format: tissue-based, Platelet; conditions: platelet; Not Active = under 50% inhibition at 10 µM
[10] = molecular target: Platelet-activating factor receptor (Homo sapiens, UniProt P25105); assay: biochemical; format: tissue-based; conditions: platelet; further: in other assays of this panel Not Active means under 50% inhibition at 10 µM
[11] = molecular target: Matrix metalloproteinase-9 (Homo sapiens, UniProt P14780); format: cell-based
[12] = molecular target: Protein phosphatase 3 catalytic subunit alpha (Homo sapiens, UniProt Q08209); set-up: species or system Escherichia coli
[13] = molecular target: 5-hydroxytryptamine receptor 1B (Rattus norvegicus, UniProt P28564); format: cell membranes, Wistar, Cerebral cortex, Membrane; further: in other assays of this panel Not Active means under 50% inhibition at 10 µM
[14] = molecular target: T3, Cytochrome P450 2A6 (Homo sapiens, UniProt P11509); conditions: bti-tn-5b1-4; further: in other assays of this panel Not Active means under 50% inhibition at 10 µM
T3 sequence (P11509 whole entry): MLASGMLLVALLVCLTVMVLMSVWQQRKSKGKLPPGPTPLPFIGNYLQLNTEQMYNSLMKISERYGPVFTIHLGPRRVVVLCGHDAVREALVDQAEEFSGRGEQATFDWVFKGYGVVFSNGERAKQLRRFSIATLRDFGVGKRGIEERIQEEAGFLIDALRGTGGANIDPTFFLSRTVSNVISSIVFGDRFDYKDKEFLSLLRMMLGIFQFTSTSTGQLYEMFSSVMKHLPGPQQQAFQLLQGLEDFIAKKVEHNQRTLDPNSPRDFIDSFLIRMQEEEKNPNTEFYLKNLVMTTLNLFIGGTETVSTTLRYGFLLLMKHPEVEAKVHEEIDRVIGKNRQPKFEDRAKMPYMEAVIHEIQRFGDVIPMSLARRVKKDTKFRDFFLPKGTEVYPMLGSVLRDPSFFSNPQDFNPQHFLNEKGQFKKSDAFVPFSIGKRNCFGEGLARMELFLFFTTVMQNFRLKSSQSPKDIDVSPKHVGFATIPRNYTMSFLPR

Chain of Substance-P receptor (P25103 whole entry): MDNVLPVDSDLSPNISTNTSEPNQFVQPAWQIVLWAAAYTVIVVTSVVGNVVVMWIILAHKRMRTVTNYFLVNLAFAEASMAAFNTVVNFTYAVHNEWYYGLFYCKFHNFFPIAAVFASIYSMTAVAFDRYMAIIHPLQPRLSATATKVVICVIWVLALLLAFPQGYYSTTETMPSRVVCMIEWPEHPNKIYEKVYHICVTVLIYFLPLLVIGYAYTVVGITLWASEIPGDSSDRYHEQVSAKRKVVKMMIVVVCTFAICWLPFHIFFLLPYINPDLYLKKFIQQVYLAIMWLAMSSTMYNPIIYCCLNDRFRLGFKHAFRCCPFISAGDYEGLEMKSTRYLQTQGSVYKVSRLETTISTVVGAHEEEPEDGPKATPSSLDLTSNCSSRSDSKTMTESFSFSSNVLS
Chain of Platelet-activating factor receptor (P25105 whole entry): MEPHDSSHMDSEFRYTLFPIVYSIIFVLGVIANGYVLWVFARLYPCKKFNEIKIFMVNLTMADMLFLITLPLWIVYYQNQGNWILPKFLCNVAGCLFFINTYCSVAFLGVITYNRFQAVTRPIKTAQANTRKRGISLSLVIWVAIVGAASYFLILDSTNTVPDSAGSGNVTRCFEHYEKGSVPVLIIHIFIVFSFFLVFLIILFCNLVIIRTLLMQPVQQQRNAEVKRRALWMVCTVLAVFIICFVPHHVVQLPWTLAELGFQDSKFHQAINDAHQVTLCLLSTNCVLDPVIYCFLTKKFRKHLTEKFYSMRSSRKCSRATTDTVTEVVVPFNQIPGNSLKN
Chain of 5-hydroxytryptamine receptor 1B (P28564 whole entry): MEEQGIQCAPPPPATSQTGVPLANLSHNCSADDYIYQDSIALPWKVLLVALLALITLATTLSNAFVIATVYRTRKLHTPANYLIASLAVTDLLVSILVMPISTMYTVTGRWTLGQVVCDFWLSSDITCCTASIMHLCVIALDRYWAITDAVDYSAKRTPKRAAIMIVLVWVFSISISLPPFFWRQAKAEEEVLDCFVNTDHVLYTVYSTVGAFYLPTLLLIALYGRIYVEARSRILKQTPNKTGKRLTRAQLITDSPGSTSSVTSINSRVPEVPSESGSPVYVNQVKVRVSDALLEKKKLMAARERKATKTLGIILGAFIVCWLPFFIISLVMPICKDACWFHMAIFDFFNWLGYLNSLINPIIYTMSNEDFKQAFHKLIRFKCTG
Chain of Sigma non-opioid intracellular receptor 1 (Q99720 whole entry): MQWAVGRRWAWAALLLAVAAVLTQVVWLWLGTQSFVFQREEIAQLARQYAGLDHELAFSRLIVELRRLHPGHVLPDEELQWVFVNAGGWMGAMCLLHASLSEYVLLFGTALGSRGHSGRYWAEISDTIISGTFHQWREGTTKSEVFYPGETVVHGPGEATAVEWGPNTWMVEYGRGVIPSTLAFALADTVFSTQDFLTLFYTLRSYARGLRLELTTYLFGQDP
Chain of Matrix metalloproteinase-9 (P14780 whole entry): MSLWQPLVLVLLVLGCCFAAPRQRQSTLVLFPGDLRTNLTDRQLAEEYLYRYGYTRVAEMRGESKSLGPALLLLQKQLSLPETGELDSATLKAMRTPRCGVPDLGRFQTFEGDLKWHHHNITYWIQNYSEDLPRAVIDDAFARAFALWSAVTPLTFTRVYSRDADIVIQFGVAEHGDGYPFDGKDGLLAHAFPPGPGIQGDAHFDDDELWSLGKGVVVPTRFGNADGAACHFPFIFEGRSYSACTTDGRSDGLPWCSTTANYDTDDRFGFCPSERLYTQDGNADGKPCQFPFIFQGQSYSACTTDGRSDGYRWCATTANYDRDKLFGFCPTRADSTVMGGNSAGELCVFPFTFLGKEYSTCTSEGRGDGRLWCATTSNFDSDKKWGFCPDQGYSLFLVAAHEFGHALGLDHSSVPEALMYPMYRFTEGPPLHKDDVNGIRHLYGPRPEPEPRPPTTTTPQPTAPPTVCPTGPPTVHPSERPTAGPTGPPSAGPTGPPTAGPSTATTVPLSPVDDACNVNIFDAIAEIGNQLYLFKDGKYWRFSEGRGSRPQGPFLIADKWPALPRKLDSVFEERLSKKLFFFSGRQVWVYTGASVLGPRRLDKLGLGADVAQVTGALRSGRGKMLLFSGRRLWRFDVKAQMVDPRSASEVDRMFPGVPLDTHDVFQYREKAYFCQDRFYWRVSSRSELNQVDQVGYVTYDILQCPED

CC(C)(S)[C@@H](N)C(=O)O [PENICILLAMINE]
IC50 ([1]; jurkat): Not Active
IC50 [2]: Not Active
Ki [2]: Not Active
IC50 [3]: Not Active
IC50 [4]: Not Active
Ki [4]: Not Active
IC50 [5]: Not Active
Ki [5]: Not Active
IC50 [6]: Not Active
IC50 [7]: Not Active
IC50 [8]: Not Active
Ki [8]: Not Active
IC50 [9]: Not Active
IC50 [10]: Not Active
IC50 [11]: Not Active
IC50 [12]: Not Active
IC50 [13]: Not Active
IC50 [14]: Not Active
Ki [14]: Not Active

CC1COc2c(N3CCN(C)CC3)c(F)cc3c(=O)c(C(=O)O)cn1c23 (stereo not drawn) [OFLOXACIN]
IC50 ([1]; jurkat): Not Active
IC50 [2]: Not Active
Ki [2]: Not Active
IC50 [3]: Not Active
IC50 [4]: Not Active
Ki [4]: Not Active
IC50 [5]: Not Active
Ki [5]: Not Active
IC50 [6]: Not Active
IC50 [7]: Not Active
IC50 [8]: Not Active
Ki [8]: Not Active
IC50 [9]: Not Active
IC50 [10]: Not Active
IC50 [11]: Not Active
IC50 [12]: Not Active
IC50 [13]: Not Active
IC50 [14]: Not Active
Ki [14]: Not Active

Cc1[nH]cnc1CN1CCc2c(c3ccccc3n2C)C1=O [ALOSETRON]
IC50 ([1]; jurkat): Not Active
IC50 [2]: Not Active
Ki [2]: Not Active
IC50 [3]: Not Active
IC50 [4]: Not Active
Ki [4]: Not Active
IC50 [5]: Not Active
Ki [5]: Not Active
IC50 [6]: Not Active
IC50 [7]: Not Active
IC50 [8]: Not Active
Ki [8]: Not Active
IC50 [9]: Not Active
IC50 [10]: Not Active
IC50 [11]: Not Active
IC50 [12]: Not Active
IC50 [13]: Not Active
IC50 [14]: Not Active
Ki [14]: Not Active

COc1ccc(CN(CCN(C)C)c2ccccn2)cc1 [PYRILAMINE]
IC50 ([1]; read-out: IC50): 1560 nM
Ki [1]: 655 nM
IC50 [2]: Not Active
Ki [2]: Not Active
IC50 [3]: Not Active
IC50 [4]: Not Active
Ki [4]: Not Active
IC50 [5]: Not Active
Ki [5]: Not Active
IC50 [6]: Not Active
IC50 [7]: Not Active
IC50 [8]: Not Active
Ki [8]: Not Active
IC50 [9]: Not Active
IC50 [10]: Not Active
IC50 [11]: Not Active
IC50 [12]: Not Active
IC50 [13]: Not Active
IC50 [14]: Not Active
Ki [14]: Not Active

CCCCCCCCCc1ccc(O)cc1 [4-NONYLPHENOL]
IC50 ([1]; jurkat): Not Active
IC50 [2]: Not Active
Ki [2]: Not Active
IC50 [3]: Not Active
IC50 [4]: Not Active
Ki [4]: Not Active
IC50 [5]: Not Active
Ki [5]: Not Active
IC50 [6]: Not Active
IC50 [7]: Not Active
IC50 [8]: Not Active
Ki [8]: Not Active
IC50 [9]: Not Active
IC50 [10]: Not Active
IC50 [11]: Not Active
IC50 [12]: Not Active
IC50 [13]: Not Active
IC50 [14]: Not Active
Ki [14]: Not Active

CCc1ccc(C(=O)C(C)CN2CCCCC2)cc1 (stereo not drawn) [EPERISONE]
IC50 ([1]; read-out: IC50): 4.05 nM
Ki [1]: 1.7 nM
IC50 ([2]; read-out: IC50): 1060 nM
Ki ([2]; read-out: Ki): 655 nM
IC50 [3]: Not Active
IC50 [4]: Not Active
Ki [4]: Not Active
IC50 [5]: Not Active
Ki [5]: Not Active
IC50 [6]: Not Active
IC50 [7]: Not Active
IC50 [8]: Not Active
Ki [8]: Not Active
IC50 [9]: Not Active
IC50 [10]: Not Active
IC50 [11]: Not Active
IC50 [12]: Not Active
IC50 [13]: Not Active
IC50 [14]: Not Active
Ki [14]: Not Active

CC(C)n1c(/C=C/C(O)CC(O)CC(=O)O)c(-c2ccc(F)cc2)c2ccccc21 (stereo not drawn) [FLUVASTATIN]
IC50 ([1]; jurkat): Not Active
IC50 [2]: Not Active
Ki [2]: Not Active
IC50 [3]: Not Active
IC50 [4]: Not Active
Ki [4]: Not Active
IC50 [5]: Not Active
Ki [5]: Not Active
IC50 [6]: Not Active
IC50 [7]: Not Active
IC50 [8]: Not Active
Ki [8]: Not Active
IC50 [9]: Not Active
IC50 [10]: Not Active
IC50 [11]: Not Active
IC50 [12]: Not Active
IC50 [13]: Not Active
IC50 [14]: Not Active
Ki [14]: Not Active

c1ccc2c(c1)cc1ccc3cccc4ccc2c1c34
IC50 ([1]; jurkat): Not Active
IC50 [2]: Not Active
Ki [2]: Not Active
IC50 [3]: Not Active
IC50 [4]: Not Active
Ki [4]: Not Active
IC50 [5]: Not Active
Ki [5]: Not Active
IC50 [6]: Not Active
IC50 [7]: Not Active
IC50 [8]: Not Active
Ki [8]: Not Active
IC50 [9]: Not Active
IC50 [10]: Not Active
IC50 [11]: Not Active
IC50 [12]: Not Active
IC50 [13]: Not Active
IC50 [14]: Not Active
Ki [14]: Not Active

Cc1ccccc1N1CCN(CCc2nnc3n2CCCC3)CC1 [DAPIPRAZOLE]
IC50 ([1]; jurkat): Not Active
IC50 [2]: Not Active
Ki [2]: Not Active
IC50 [3]: Not Active
IC50 [4]: Not Active
Ki [4]: Not Active
IC50 [5]: Not Active
Ki [5]: Not Active
IC50 [6]: Not Active
IC50 [7]: Not Active
IC50 [8]: Not Active
Ki [8]: Not Active
IC50 [9]: Not Active
IC50 [10]: Not Active
IC50 [11]: Not Active
IC50 [12]: Not Active
IC50 [13]: Not Active
IC50 [14]: Not Active
Ki [14]: Not Active
